In patent US20180055844A1 (Celgene Corporation, priority 2011, published 2018):
Where two headings read alike, the source gives them in different places.

Tests used:
Type in all cases: cell-based
[1] = tested on: TNFα; test: WB TNFα; conditions: Homo sapiens; whole blood
[2] = tested on: human umbilical artery; test: Human umbilical artery angiogenesis assay
[3] = tested on: multiple myeloma (MM) cell lines; test: Inhibition of MM cell proliferation
Protocol: The ability of compounds to effect the proliferation of MM cell lines was investigated in an in vitro study. Uptake of [^3H]-thymidine by H929 MM cells and 7-AAD uptake in several MM cell lines (H929, U266B1, Anbl-6, KMS-34, OPM-2, DF-15, DF15/R, CAG, MM1.S and LP-1) was measured as an indicator of cell proliferation. Cells were incubated in the presence of compounds for 72 hours ([^3H]-thymidine was included for the last 6 hours of the incubation period) or 5 days followed by 7-AAD uptake to measure and count viable cells.

[4] = tested on: SNB-19; test: Invasion of solid tumor cells; conditions: Homo sapiens; SNB-19 (PDGF), glioblastoma
[5] = tested on: HCT15; test: Solid tumor cell colony formation; conditions: Homo sapiens, HCT-15
[6] = tested on: PC-3; test: Solid tumor cell colony formation; conditions: Homo sapiens

`Cc1nc2cccc(N)c2c(=O)n1C1CCC(=O)NC1=O` (stereo not shown) [compound of Formula I, 3-(5-amino-2-methyl-4-oxo-4H-quinazolin-3-yl)-piperidine-2,6-dione] gave an IC50 [1] of 164 nM, an IC50 ([2]; read-out: Human angiogenesis IC50) of 9.4 nM and an IC50 ([2]; read-out: anti-angiogenic IC50, human umbilical artery assay) of 9.4 nM. The “MM cell proliferation in a number of cell lines” value [3] was “inhibit MM cell proliferation”, the IC50 [4] was 160 nM and the inhibition at 10 µM [5] was 3%. For the same molecule, the inhibition at 10 µM [6] was 14.8%.
